Assay results as given in patent US20240343720A1, “AAK1 INHIBITOR AND USE THEREOF” (Xizang Haisco Pharmaceutical Co., Ltd., priority 2021, published 2024).

Each compound was assayed against AAK1 (Homo sapiens (Human), UniProt Q2M2I8) (assay: In vitro AAK1 enzyme activity assay (ADP-Glo)). Details: read-out: Inhibitory activity against AAK1 IC50.
Format: biochemical
Method: Compound stock solution (concentration: 10 mM, dissolved in DMSO) was diluted with DMSO to 0.2 mM and then diluted with DMSO in 5-fold gradient to obtain compound solutions with 10 concentrations. Subsequently, the compound solutions with different concentrations were diluted 50-fold in 1×kinase reaction buffer (containing 40 mM Tris, 20 mM MgCl2, 0.1% BSA and 0.5 mM DTT) for later use. AAK1 (Signalchem, Cat #A01-11G-10) was diluted with 1×kinase reaction buffer to 2-fold the final concentration (final concentrations: 30 nM and 28 nM). AAK1 was added to a 384-well white plate at 2 μL/well, and the compounds were then added at 1 μL/well. The plate was sealed with a plate-sealing film, centrifuged at 1000 rpm for 30 seconds and then placed at room temperature for 10 minutes. A mixed solution of ATP (Promega, Cat #V914B) and substrate Micro2 (GenScript, Cat #PE0890) was formulated at 4-fold the final concentration (for AAK1, the corresponding final concentrations of ATP: 15 μM and 5 μM, and the corresponding final concentration of Micro2: 0.1 mg/mL). To the reaction plate was added the mixed solution of ATP and the substrate at 1 μL/well. The plate was sealed with a plate-sealing film and centrifuged at 1000 rpm for 30 seconds. The reaction was carried out at room temperature for 60 minutes (AAK1). ADP-Glo (Promega, Cat #V9102) was transferred to the 384-well plate at 4 μL/well and centrifugation was carried out at 1000 rpm for 1 minute. The mixture was incubated at 25° C. for 40 minutes. A detection solution was transferred to the 384-well plate at 8 μL/well and centrifugation was carried out at 1000 rpm for 1 minute. The resulting mixture was incubated at 25° C. for 40 minutes. The RLU (Relative luminescence unit) signal values were read using a Biotek multilable microplate reader and the percent inhibition was calculated according to the following formula: [1−(LUMcompound−LUMpositive control)/(LUMnegative control−LUMpositive control)]×100. IC50 values were calculated using Graphpad 7.0 software using a four-parameter non-linear fit equation.

Chain of AAK1 (Q2M2I8 27-365): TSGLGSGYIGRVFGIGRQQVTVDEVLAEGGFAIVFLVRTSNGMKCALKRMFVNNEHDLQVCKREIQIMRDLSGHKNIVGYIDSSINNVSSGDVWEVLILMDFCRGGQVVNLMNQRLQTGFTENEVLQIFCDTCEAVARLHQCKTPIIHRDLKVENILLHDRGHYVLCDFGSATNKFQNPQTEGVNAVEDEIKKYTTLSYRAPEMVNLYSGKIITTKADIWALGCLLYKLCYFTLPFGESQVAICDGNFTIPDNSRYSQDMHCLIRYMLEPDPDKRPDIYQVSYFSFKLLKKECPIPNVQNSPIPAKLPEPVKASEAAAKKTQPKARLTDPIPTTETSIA

Row | IC50 [nM] | SMILES
1 | 10.9 | COC(=O)Nc1cc(-c2ccc(OC[C@@](C)(N)CC3CC3)c(C(F)F)n2)ccn1 [Compound 31, Methyl (S)-(5-(2-amino-3-cyclopropyl-2-methylpropoxy)-6-(difluoromethyl)-[2,4′-bipyridin]-2′-yl)carbamate]
2 | 11 | CC(=O)Nc1cc(-c2ccc(OC[C@@](C)(N)CC(C)(C)F)c(C#N)c2)ccn1 [Compound 6, (S)-N-(4-(4-((2-amino-4-fluoro-2,4-dimethylpentyl)oxy)-3-cyanophenyl)pyridin-2-yl)acetamide]
3 | 22.3 | CC(=O)Nc1cc(-c2ccc(OC[C@@](C)(N)CC(C)(C)F)c(C(F)F)n2)ccn1 [Compound 16, (S)-N-(5-((2-amino-4-fluoro-2,4-dimethylpentyl)oxy)-6-(difluoromethyl)-[2,4′-bipyridin]-2′-yl)acetamide]
4 | 9.08 | C=C(C)C[C@](C)(N)COc1ccc(-c2ccnc(NC(=O)[C@@H]3CC3(F)F)c2)cc1C#N [Compound 30, (1S)-N-(4-(4-{[(2S)-2-amino-2,4-dimethylpent-4-en-1-yl]oxy}-3-cyanophenyl)pyridin-2-yl)-2,2-difluorocyclopropane-1-carboxamide]
5 | 11.9 | C=C(C)C[C@](C)(N)COc1ccc(-c2ccnc(NC(=O)[C@H]3C[C@H]3F)c2)cc1C#N [Compound 25, (1R,2R)-N-(4-(4-(((S)-2-amino-2,4-dimethylpent-4-en-1-yl)oxy)-3-cyanophenyl)pyridin-2-yl)-2-fluorocyclopropane-1-carboxamide]
6 | 16.1 | COC(=O)Nc1cc(-c2cc(C(F)F)c(OC[C@@](C)(N)CC(C)(C)F)cn2)ccn1 [Compound 20, Methyl (S)-(5-((2-amino-4-fluoro-2,4-dimethylpentyl)oxy)-4-(difluoromethyl)-[2,4′-bipyridin]-2′-yl)carbamate]
7 | 43.1 | COC(=O)Nc1cc(-c2cc(C(F)(F)F)c(OCC(C)(N)C=C(C)C)cn2)ccn1 (stereo not drawn) [Compound 27, Methyl (5-((2-amino-2,4-dimethylpent-3-en-1-yl)oxy)-4-(trifluoromethyl)-[2,4′-bipyridin]-2′-yl)carbamate]
8 | 38.6 | C=C(C)C[C@](C)(N)COc1ccc(-c2ccnc(NC(C)=O)c2)cc1C(N)=O [Compound 23, (S)-5-(2-acetamidopyridin-4-yl)-2-((2-amino-2,4-dimethylpent-4-en-1-yl)oxy)benzamide]
9 | 19.8 | C=C(C)C[C@](C)(N)COc1ccc(-c2ccnc(NC(C)=O)c2)nc1C(F)F [Compound 15, (S)-N-(5-((2-amino-2,4-dimethylpent-4-en-1-yl)oxy)-6-(difluoromethyl)-[2,4′-bipyridin]-2′-yl)acetamide]
10 | 9.29 | CC(N)(COc1ccc(-c2ccnc(C(F)F)c2)nc1C(F)F)CC1(C)CC1 (stereo not drawn) [Compound 2, 1-((2′,6-bis(difluoromethyl)-[2,4′-bipyridin]-5-yl)oxy)-2-methyl-3-(1-methylcyclopropyl) propan-2-amine]
11 | 22.5 | C=C(C)C[C@](C)(N)COc1ccc(-c2ccnc(NC(=O)C3CC(F)(F)C3)c2)cc1C#N [Compound 24, (S)-N-(4-(4-((2-amino-2,4-dimethylpent-4-en-1-yl)oxy)-3-cyanophenyl)pyridin-2-yl)-3,3-difluorocyclobutane-1-carboxamide]
12 | 6.37 | C=C(C)C[C@](C)(N)COc1ccc(-c2ccnc(NC(C)=O)c2)cc1C#N [Compound 5, (S)-N-(4-(4-((2-amino-2,4-dimethylpent-4-en-1-yl)oxy)-3-cyanophenyl)pyridin-2-yl)acetamide]
13 | 9.55 | COC(=O)Nc1cc(-c2cnc(OC[C@@](C)(N)CC(C)(C)F)c(C(F)F)c2)ccn1 [Compound 18, (S)-methyl-(6-((2-amino-4-fluoro-2,4-dimethylpentyl)oxy)-5-(difluoromethyl)-[3,4′-bipyridin]-2′-yl)carbamate]
14 | 11 | C=C(C)C[C@](C)(N)COc1ccc(-c2ccnc(NC(=O)[C@H]3CC3(F)F)c2)cc1C#N [Compound 29, (1R)-N-(4-(4-{[(2S)-2-amino-2,4-dimethylpent-4-en-1-yl]oxy}-3-cyanophenyl)pyridin-2-yl)-2,2-difluorocyclopropane-1-carboxamide]
15 | 26.8 | C=C(C)C[C@](C)(N)COc1ncc(-c2ccnc(NC(=O)OC)c2)cc1C(F)F [Compound 17, (S)-methyl-(6-((2-amino-2,4-dimethylpent-4-en-1-yl)oxy)-5-(difluoromethyl)-[3,4′-bipyridin]-2′-yl)carbamate]
16 | 14.7 | CC(C)(F)CC(C)(N)COc1ccc(-c2ccnc(C(F)F)c2)nc1C(F)F (stereo not drawn) [Compound 1, 1-((2′,6-bis(difluoromethyl)-[2,4′-bipyridin]-5-yl)oxy)-4-fluoro-2,4-dimethylpentan-2-amine]
17 | 11.5 | C=C(C)C[C@](C)(N)COc1ccc(-c2ccnc(NC(=O)OC)c2)nc1C [Compound 10, Methyl (S)-(5-((2-amino-2,4-dimethylpent-4-en-1-yl)oxy)-6-methyl-[2,4′-bipyridin]-2′-yl)carbamate]
18 | 5.96 | CC(=O)Nc1cc(-c2ccc(OC[C@@](C)(N)CC(C)(O)CO)c(C#N)c2)ccn1 (stereo partly drawn) [Compound 28, N-(4-(4-(((2S)-2-amino-4,5-dihydroxy-2,4-dimethylpentyl)oxy)-3-cyanophenyl)pyridin-2-yl)acetamide]
19 | 13.8 | C=C(C)C[C@](C)(N)COc1cnc(-c2ccnc(NC(=O)OC)c2)cc1C(F)(F)F [Compound 7, Methyl-(S)-(5-((2-amino-2,4-dimethylpent-4-en-1-yl)oxy)-4-(trifluoromethyl) [2,4′-bipyridin]-2′-yl)carbamate]
20 | 32.1 | NC1(COc2ccc(-c3ccnc(C(F)F)c3)nc2C(F)F)CCCC1 [Compound 22, 1-(((2′,6-bis(difluoromethyl)-[2,4′-bipyridin]-5-yl)oxy)methyl)cyclopentan-1-amine]

Row | SMILES | IC50 [nM]
21 | C[C@@](N)(COc1ccc(-c2ccnc(C(F)F)c2)nc1C(F)F)CC1CC1 [Compound 26, (S)-1-((2′,6-bis(difluoromethyl)-[2,4′-bipyridin]-5-yl)oxy)-3-cyclopropyl-2-methylpropan-2-amine] | 11
